Measurements reported in PMC11274883, “Anticancer Effect of Pt^[sequence], Pt^II5MESS, Pt^II56MESS and Their Platinum(IV)-Dihydroxy Derivatives against Triple-Negative Breast Cancer and Cisplatin-Resistant Colorectal Cancer” (Cancers, 2024).

Assays:
Assay type in all cases: cell-based
MCF−7 = assay: WST-1 cytotoxicity, 72 h
Protocol: (§1) Cells were seeded in 96-well flat-bottom culture plates at a concentration of 1000 cells per well. […] After 72 h, the medium was removed and replaced with new medium. The cell viability reagent WST-1 (10 µL, Roche Diagnostics, Indianapolis, IN, USA) was added to each well. After an hour, the absorbance was measured at 450 nm using a versatile microplate reader (Bio-strategy, Campbellfield, VIC, Australia). Three separate experiments were performed, each with n = 3 replicates. GraphPad prism 10 was used to calculate apparent IC50 values using the nonlinear regression model Y = Bottom + (Top-Bottom)/(1 + 10^(X-LogIC50)) where Top and bottom are plateaus in the y-axis (% survival).

ADDP = assay: WST-1 cytotoxicity, 72 h
Protocol: as §1

MDA−MB−231 = assay: WST-1 cytotoxicity, 72 h
Protocol: as §1

MDA−MB−231 cells [1] = assay: TMRE mitochondrial membrane potential assay; conditions: complexes at IC50, FCCP 20 µM
Protocol: (§2) Cells were then treated with an IC50 drug concentration for each complex. At 24, 48 or 72 h, DMEM was removed, and cells were washed with PBS. Then, cells were incubated with 1 µM tetramethylrhodamine, ethyl ester (TMRE) stain for 30 min. TMRE was then removed, and cells were washed twice with PBS (0.2% BSA), after which phenol red-free media was added. […] The cells were then stained with TMRE, as described above, and the resulting solution was scanned for fluorescence. Three independent experiments in triplicates were implemented.

HT29 cells [2] = assay: TMRE mitochondrial membrane potential assay; conditions: complexes at IC50, FCCP 20 µM
Protocol: as §2

MDA−MB−231 cells [3] = assay: Cellular uptake of Pt by ICP-MS; conditions: for Intracellular Concentration: MDA−MB−231, 3 µM; for Intracellular/extracellular ratio: MDA−MB−231, extracellular 3 µM
Protocol: (§3) A final concentration of 10^6 cells/well of MDA−MB−231 and HT29 cells were seeded in 6-well plates and incubated overnight to adhere. The cells were then treated with a final concentration of 3 µM of either Pt^II or Pt^IV complexes. After 0, 0.5, 1, 3, 6, 12, 24 or 30 h, the medium was removed, and the cells were washed three times with cold PBS and allowed to dry. Then, 400 µL of 69% HNO3 (Baseline grade nitric acid with PPB level reported impurities, Seastar Chemicals, Sidney, BC, Canada) was added to each well for 90 min to ensure complete digestion. […] Iridium 193 (^193Ir) was mixed online and introduced into the ICP-MS to check uptake efficiency and matrix interference. All ICP-MS parameters are described in Table S2 and elaborated in Method S3. The results represent an average of three different experiments run in triplicate (±SEM) and expressed as nmol/10^6 cells or µM/cell. Quantification of the cellular uptake of Pt was based on external standards (Certified Standard from Sigma-Aldrich, VIC, Australia) containing Internal standard Ir.
(§4) Method S3. Cellular Uptake of Platinum(II) and (IV) complexes
(§5) A final concentration of 10^6 cells/well of MDA−MB−231 and HT29 cells were seeded in 6-well plates and incubated overnight to adhere. The cells were then treated with a final concentration of 3 µM of either PtII or PtIV complexes. After 0, 0.5, 1, 3, 6, 12, 24 or 30 h, the medium was removed, and the cells were washed three times with cold PBS and allowed to dry. Then, 400 µL of 69% HNO3 (Baseline grade nitric acid with Instrument Quality Grade Nitric acid with ppb level reported impurities, Seastar Chemicals, Sidney, Canada) was added to each well for 90 mins to ensure complete digestion. The digests were then moved to trace -metal free 15 mL centrifuge tubes […]
(§6) concentration of 3.5-4%. Iridium 193 (193Ir), selected as internal standard, has similar first ionisation potential and mass to Platinum 195 (195Pt). A concentration of 50 ppb 193Ir in 2% HNO3 solution was chosen for the Perkin Elmer NexION® Inductively Coupled Plasma Mass Spectrometer (ICP-MS) as it produced a steady state signal intensity of 600-800K counts per second. Mixing and injection of sample and internal standard solution was carried out using an ESI 7 port Valve system (Elemental Scientific, USA). A high-quality Solvent Flex 2 stop pump with 0.38 mm ID tubing was used in conjunction with the ICP-MS’s Peristaltic pump set at 20 […]
(§7) standard both, at 0.25 mL/min) being 0.5 mL/min. The ICP-MS was tuned to high sensitivity settings to facilitate detection of low Pt concentrations in samples. This was done by adjusting the nebuliser gas flow between […] to achieve maximum Indium 115 intensity whilst maintaining an acceptable average oxide and doubly charged ratio of 1.64-2.24% and 1.17-1.69% respectively. The analysis method was set to peak hopping mode with a dwell time of […] and 45 sweeps through the mass spectrum per sample read. […]
(§8) peak integration time of 4500 milliseconds and enabled the collection of numerous data points for peak integration thereby increasing accuracy. The ICP-MS was tuned daily, and its performance optimised to a set of suppliers recommended settings. Analysis was only carried out when optimal oxide and doubly charged ratios with high ionic sensitivity was achieved. All ICP-MS parameters are described in Table S2. The results represent an average of three different experiments run in triplicates (± SEM) and expressed as nmol/106 cells or µM/cell. Quantification of the cellular uptake of Pt was based on external standards (Certified Standard from Sigma-Aldrich NSW, Australia) containing Internal standard Ir. […]

HT29 cells [4] = assay: Cellular uptake of Pt by ICP-MS; conditions: for Intracellular Concentration: HT29, 3 µM; for Intracellular/extracellular ratio: HT29, extracellular 3 µM
Protocol: as §3, §4, §5, §6, §7, §8

Cc1cc2cccnc2c2ncccc12.N[C@H]1CCCC[C@@H]1N.O=[N+]([O-])[O-].O=[N+]([O-])[O-].[Pt+2] [Pt^II5MESS, [Pt(5-methyl-1,10-phenanthroline)(1S,2S-diaminocyclohexane)](NO3)2]
Selective cytotoxicity index (SCI) (MCF−7; IC50 MCF10A/IC50 MCF−7): 1.37
potency relative to cisplatin (MCF−7; MCF−7, 72 h): 38 fold
IC50 (MCF−7; MCF−7, 72 h, mean ± SEM): 860 ± 1670 nM
potency relative to cisplatin (ADDP; ADDP, 72 h): 85 fold
IC50 (ADDP; ADDP, 72 h, mean ± SEM): 1320 ± 1330 nM
Selective cytotoxicity index (SCI) (ADDP; IC50 MCF10A/IC50 ADDP): 0.89
Selective cytotoxicity index (SCI) (MDA−MB−231; IC50 MCF10A/IC50 MDA−MB−231): 2.27
potency relative to cisplatin (MDA−MB−231; MDA−MB−231, 72 h): 25 fold
IC50 (MDA−MB−231; MDA−MB−231, 72 h, mean ± SEM): 520 nM
MtMp (mitochondrial membrane potential) (MDA−MB−231 cells [1]; MDA−MB−231, 24 h): 230.62 RFU
MtMp (mitochondrial membrane potential) (MDA−MB−231 cells [1]; MDA−MB−231, 48 h): 189.85 RFU
MtMp (mitochondrial membrane potential) (MDA−MB−231 cells [1]; MDA−MB−231, 72 h): 150.71 RFU
MtMp (mitochondrial membrane potential) (HT29 cells [2]; HT29, 24 h): 253.81 RFU
MtMp (mitochondrial membrane potential) (HT29 cells [2]; HT29, 48 h): 211.88 RFU
MtMp (mitochondrial membrane potential) (HT29 cells [2]; HT29, 72 h): 143.93 RFU
Intracellular Concentration (MDA−MB−231 cells [3]; 0 h): 0.37 nmol/10^6 cells
Intracellular Concentration (MDA−MB−231 cells [3]; 0.5 h): 0.44 nmol/10^6 cells
Intracellular Concentration (MDA−MB−231 cells [3]; 1 h): 0.39 nmol/10^6 cells
Intracellular Concentration (MDA−MB−231 cells [3]; 3 h): 0.98 nmol/10^6 cells
Intracellular Concentration (MDA−MB−231 cells [3]; 6 h): 1.25 nmol/10^6 cells
Intracellular Concentration (MDA−MB−231 cells [3]; 12 h): 4.82 nmol/10^6 cells
Intracellular Concentration (MDA−MB−231 cells [3]; 24 h): 5.64 nmol/10^6 cells
Intracellular Concentration (MDA−MB−231 cells [3]; 30 h): 7.63 nmol/10^6 cells
Intracellular/extracellular ratio (MDA−MB−231 cells [3]; 0 h): 57.65
Intracellular/extracellular ratio (MDA−MB−231 cells [3]; 0.5 h): 69.63
Intracellular/extracellular ratio (MDA−MB−231 cells [3]; 1 h): 61.30
Intracellular/extracellular ratio (MDA−MB−231 cells [3]; 3 h): 154.59
Intracellular/extracellular ratio (MDA−MB−231 cells [3]; 6 h): 196.09
Intracellular/extracellular ratio (MDA−MB−231 cells [3]; 12 h): 757.65
Intracellular/extracellular ratio (MDA−MB−231 cells [3]; 24 h): 885.63
Intracellular/extracellular ratio (MDA−MB−231 cells [3]; 30 h): 1199.77
Intracellular Concentration (HT29 cells [4]; 0 h): 0.28 nmol/10^6 cells
Intracellular Concentration (HT29 cells [4]; 0.5 h): 0.79 nmol/10^6 cells
Intracellular Concentration (HT29 cells [4]; 1 h): 1.26 nmol/10^6 cells
Intracellular Concentration (HT29 cells [4]; 3 h): 2.75 nmol/10^6 cells
Intracellular Concentration (HT29 cells [4]; 6 h): 4.65 nmol/10^6 cells
Intracellular Concentration (HT29 cells [4]; 12 h): 19.18 nmol/10^6 cells
Intracellular Concentration (HT29 cells [4]; 24 h): 21.18 nmol/10^6 cells
Intracellular Concentration (HT29 cells [4]; 30 h): 21.24 nmol/10^6 cells
Intracellular/extracellular ratio (HT29 cells [4]; 0 h): 44.37
Intracellular/extracellular ratio (HT29 cells [4]; 0.5 h): 125.00
Intracellular/extracellular ratio (HT29 cells [4]; 1 h): 197.63
Intracellular/extracellular ratio (HT29 cells [4]; 3 h): 431.44
Intracellular/extracellular ratio (HT29 cells [4]; 6 h): 730.89
Intracellular/extracellular ratio (HT29 cells [4]; 12 h): 3013.21
Intracellular/extracellular ratio (HT29 cells [4]; 24 h): 3327.94
Intracellular/extracellular ratio (HT29 cells [4]; 30 h): 3337.20
